Data taken from ChEMBL document CHEMBL3997825, “Discovery of 2-oxopiperazine dengue inhibitors by scaffold morphing of a phenotypic high-throughput screening hit” (Bioorg Med Chem Lett, 2017).
≈ marks a conversion by molar mass, not a printed value.

Columns and labels:
[1] = Solubility of the compound at pH 6.8; assay type: physicochemical; settings: buffer
dengue virus type 2 [2] = test: Antiviral activity against DENV2 MY97-10340 infected in human A549 cells assessed as decrease in envelope protein production after 48 hrs by immunodetection method; assay type: functional, cell-based; settings: MY97-10340, A549, 48 h
dengue virus type 1 [3] = test: Antiviral activity against DENV1 MY97-10245 infected in human A549 cells assessed as decrease in envelope protein production after 48 hrs by immunodetection method; assay type: functional, cell-based; settings: MY97-10245, A549, 48 h
dengue virus type 4 [4] = test: Antiviral activity against DENV4 MY01-22713 infected in human A549 cells assessed as decrease in envelope protein production after 48 hrs by immunodetection method; assay type: functional, cell-based; settings: MY01-22713, A549, 48 h
[5] = Cytotoxicity against human HepG2 cells; assay type: cell-based
dengue virus type 3 [6] = test: Antiviral activity against DENV3 MY05-34640 infected in human A549 cells assessed as decrease in envelope protein production after 48 hrs by immunodetection method; assay type: functional, cell-based; settings: MY05-34640, A549, 48 h
[7] = Lipophilicity, log D of the compound at pH 7.4; assay type: physicochemical; settings: buffer
[8] = Intrinsic clearance in human liver microsomes; assay type: ADME, microsome; settings: read-out: CLH
dengue virus type 4 [9] = test: Antiviral activity against DENV4 H241 infected in BHK21 cells assessed as reduction in viral titer after 72 hrs by plaque assay; assay type: functional, cell-based; settings: H241, BHK-21, 72 h
dengue virus type 1 [10] = test: Antiviral activity against DENV1 West Pacific infected in BHK21 cells assessed as reduction in viral titer after 48 hrs by plaque assay; assay type: functional, cell-based; settings: BHK-21, 48 h
dengue virus type 2 [11] = test: Antiviral activity against DENV2 New Guinea C infected in human A549 cells assessed as reduction in viral titer after 48 hrs by plaque assay; assay type: functional, cell-based; settings: Thailand/NGS-C/1944, A549, 48 h
dengue virus type 3 [12] = test: Antiviral activity against DENV3 H87 infected in BHK21 cells assessed as reduction in viral titer after 72 hrs by plaque assay; assay type: functional, cell-based; settings: H87, BHK-21, 72 h
dengue virus type 2 [13] = test: Antiviral activity against DENV2 TSVO1 infected in C6/36 cells assessed as reduction in viral titer after 72 hrs by plaque assay; assay type: functional, cell-based; settings: TSVO1, C6/36, 72 h

solubility [1] [µM] | EC50 (dengue virus type 2 [2]) [nM] | EC50 (dengue virus type 1 [3]) [nM] | EC50 (dengue virus type 4 [4]) [nM] | EC50 (dengue virus type 3 [6]) [nM] | logD [7] | microsomal CLint [8] [µL/min/mg] | SMILES | CC50 [5] [nM] | EC50 (dengue virus type 4 [9]) [nM] | EC50 (dengue virus type 1 [10]) [nM] | EC50 (dengue virus type 2 [11]) [nM] | EC50 (dengue virus type 3 [12]) [nM] | EC50 (dengue virus type 2 [13]) [nM]
4 (≈ 1.91 µg/mL) | 1000 | 700 | 600 | 300 |  |  | CSc1cccc(N2C(=O)CN(c3cccc(C(F)(F)F)c3)CC2C(=O)NC2CCCC2)c1 (stereo not drawn) | 20000 |  |  |  |  | 
 | 11000 | 4000 | 2500 | 1300 |  |  | CSc1cccc(N2C(=O)CN(c3ccccc3)CC2(C)C(=O)NC2CCCC2)c1 (stereo not drawn) | > 50000 |  |  |  |  | 
 | > 50000 | > 50000 | 28000 | 13000 |  |  | CSc1cccc(N2C(=O)CN(c3cncc(C(F)(F)F)c3)CC2C(=O)NC2CCCC2)c1 (stereo not drawn) | > 50000 |  |  |  |  | 
 | 1000 | 800 | 500 | 400 |  |  | O=C(NC1CCCC1)C1CN(c2ccc(C(F)(F)F)cc2)CC(=O)N1c1ccc2ccoc2c1 (stereo not drawn) | 20000 |  |  |  |  | 
 | 5100 | 5500 | 1500 | 600 |  |  | CSc1cccc(N2C(=O)c3cc4ccc(C(F)(F)F)cc4n3C[C@]2(C)C(=O)NC2CCCC2)c1 | 20000 |  |  |  |  | 
 | 5700 | 6900 | 2600 | 2600 |  |  | O=C(NC1CCCC1)[C@H]1CN(c2ccc(C(F)(F)F)cc2)CC(=O)N1c1ccc2ccsc2c1 | 10000 |  |  |  |  | 
< 4 | 100 | 70 | 30 | 30 | > 4.5 | 59 | O=C(NC1CCCC1)[C@@H]1CN(c2ccc(C(F)(F)F)cc2)CC(=O)N1c1ccc2ccsc2c1 | 20000 |  |  |  |  | 
 | 1000 | 1800 | 200 | 50 |  |  | O=C(NC1CCC1)C1CN(c2ccccc2)CC(=O)N1c1ccc2ccsc2c1 (stereo not drawn) | > 50000 |  |  |  |  | 
 | 2000 | 2800 | 1200 | 90 |  |  | N#Cc1cccc(NC(=O)C2CN(c3ccccc3)CC(=O)N2c2ccc3ccsc3c2)c1 (stereo not drawn) | > 50000 |  |  |  |  | 
 | 11000 | 2000 | 2000 | 800 |  |  | CSc1cccc(N2C(=O)CN(c3ccccc3)CC2C(=O)NC2CCCC2)c1 (stereo not drawn) | > 50000 |  |  |  |  | 
 | 2200 | 6200 | 600 | 200 |  |  | O=C(NCC1CC1)C1CN(c2ccccc2)CC(=O)N1c1ccc2ccsc2c1 (stereo not drawn) | > 50000 |  |  |  |  | 
 | 600 | 500 | 200 | 200 |  |  | CSc1cccc(N2C(=O)CN(c3ccc(C(F)(F)F)cc3)CC2C(=O)NC2CCCC2)c1 (stereo not drawn) | 10000 |  |  |  |  | 
 | 900 | 500 | 400 | 300 |  |  | O=C(NC1CCCC1)C1CN(c2ccc(C(F)(F)F)cc2)CC(=O)N1c1cnc2ccsc2c1 (stereo not drawn) | 30000 |  |  |  |  | 
 | > 50000 | > 50000 | 45000 | 31000 |  |  | CSc1cccc(N2C(=O)CN(c3cccnc3)CC2C(=O)NC2CCCC2)c1 (stereo not drawn) | > 50000 |  |  |  |  | 
 | 1500 | 2400 | 900 | 170 |  |  | O=C(NC1CCCC1)C1CN(c2ccccc2)CC(=O)N1c1ccc2ccsc2c1 (stereo not drawn) | > 50000 |  |  |  |  | 
 | 3600 | 5300 | 2600 | 2500 |  |  | CSc1cccc(N(C(=O)c2cc3ccc(C(F)(F)F)cc3[nH]2)[C@H](C)C(=O)NC2CCCC2)c1 | 15000 |  |  |  |  | 
 | 300 | 200 | 100 | 80 |  |  | O=C(NC1CCCC1)C1CN(c2ccc(C(F)(F)F)cc2)CC(=O)N1c1ccc2ccsc2c1 (stereo not drawn) | 10000 |  |  |  |  | 

solubility [1] [µM] | EC50 (dengue virus type 2 [2]) [nM] | EC50 (dengue virus type 1 [3]) [nM] | EC50 (dengue virus type 4 [4]) [nM] | EC50 (dengue virus type 3 [6]) [nM] | logD [7] | microsomal CLint [8] [µL/min/mg] | SMILES | CC50 [5] [nM] | EC50 (dengue virus type 4 [9]) [nM] | EC50 (dengue virus type 1 [10]) [nM] | EC50 (dengue virus type 2 [11]) [nM] | EC50 (dengue virus type 3 [12]) [nM] | EC50 (dengue virus type 2 [13]) [nM]
< 4 | 90 | 40 | 50 | 10 | > 4.5 | > 735 | CSc1cccc(N2C(=O)c3cc4ccc(C(F)(F)F)cc4n3C[C@@]2(C)C(=O)NC2CCCC2)c1 | 20000 |  |  |  |  | 
40 (≈ 19.1 µg/mL) | 1200 | 400 | 600 | 200 |  |  | CSc1cncc(N2C(=O)CN(c3cccc(C(F)(F)F)c3)CC2C(=O)NC2CCCC2)c1 (stereo not drawn) | 26000 |  |  |  |  | 
 | 5400 | 2900 | 2400 | 1600 |  |  | COc1cccc(N2CC(=O)N(c3cccc(SC)c3)C(C(=O)NC3CCCC3)C2)c1 (stereo not drawn) | > 50000 |  |  |  |  | 
 | 500 | 320 | 420 | 90 |  |  | CSc1cccc(N2C(=O)c3ccc(-c4ccco4)n3CC2(C)C(=O)NC2CCCC2)c1 (stereo not drawn) | > 50000 |  |  |  |  | 
 | 8000 | 6100 | 5800 | 6500 |  |  | CSc1cccc(N2C(=O)CN(c3cc(C(F)(F)F)ccc3C)CC2C(=O)NC2CCCC2)c1 (stereo not drawn) | 10000 |  |  |  |  | 
 | 1700 | 2200 | 1500 | 2000 |  |  | CSc1cccc(N(C(=O)c2cc3ccc(C(F)(F)F)cc3[nH]2)[C@@H](C)C(=O)NC2CCCC2)c1 | 7100 |  |  |  |  | 
 | 2200 | 1900 | 800 | 400 |  |  | CC(F)(F)c1cccc(N2C(=O)CN(c3cccc(C(F)(F)F)c3)CC2C(=O)NC2CCCC2)c1 (stereo not drawn) | 9000 |  |  |  |  | 
 | 7400 | 4100 | 2500 | 1700 |  |  | CSc1cccc(N2C(=O)CN(c3cccc(C#N)c3)CC2C(=O)NC2CCCC2)c1 (stereo not drawn) | > 50000 |  |  |  |  | 
 | 10000 | 5100 | 2000 | 3900 |  |  | CSc1cccc(NC(=O)c2cc3ccc(C(F)(F)F)cc3n2CC(C)C(=O)NC2CCCC2)c1 (stereo not drawn) | 7100 |  |  |  |  | 
 | 10000 | 7100 | 6300 | 2200 |  |  | CC(=O)c1cccc(N2C(=O)CN(c3cccc(C(F)(F)F)c3)CC2C(=O)NC2CCCC2)c1 (stereo not drawn) | 40000 |  |  |  |  | 
 | 3000 | 3100 | 1500 | 2300 |  |  | CSc1cccc(N(CC(=O)NC2CCCC2)C(=O)c2cc3ccc(C(F)(F)F)cc3n2C)c1 | 6300 |  |  |  |  | 
 | 2700 | 5600 | 1700 | 500 |  |  | O=C(Nc1cccnc1)C1CN(c2ccccc2)CC(=O)N1c1ccc2ccsc2c1 (stereo not drawn) | > 50000 |  |  |  |  | 
 | 200 | 80 | 170 | 50 |  |  | CSc1cccc(N2C(=O)c3cc4ccc(C(F)(F)F)cc4n3CC2(C)C(=O)NC2CCCC2)c1 (stereo not drawn) | > 50000 |  |  |  |  | 
 | 1700 | 1100 | 700 | 400 |  |  | O=C(NC1CCCC1)C1CN(c2cccc(C(F)(F)F)c2)CC(=O)N1c1cccc(OC(F)(F)F)c1 (stereo not drawn) | 8000 |  |  |  |  | 
 |  |  |  |  |  |  | COc1ccc(-c2csc(NC(=O)c3cc(C(C)(C)C)cc(C(C)(C)C)c3)n2)cc1 |  | 1000 to 4100 | 1000 to 4100 | 1000 to 4100 | 1000 to 4100 | 1000 to 4100
 | 1500 | 2000 | 1900 | 130 |  |  | NC(=O)c1cccc(NC(=O)C2CN(c3ccccc3)CC(=O)N2c2ccc3ccsc3c2)c1 (stereo not drawn) | > 50000 |  |  |  |  | 
